Source: patent publication EP2135864A1, “5-(4-methanesulfonyl-phenyl)-thiazole derivatives for the treatment of acute and chronic inflammatory diseases” (FAES FARMA, S.A., priority 2008, dated 2009)

What was measured:
Format in all cases: cell-based, human
IL-10 = IL-10 production by PBMC from healthy volunteers, CBA; settings: 24 hours, mean ± standard error, n=13
Procedure: (§1) CBA protocol was followed according to the manufacturer's instructions. The election of microparticles was performed following the summary of Figure 1.
(§2) The acquisition on samples was performed with the BD FACS Array Bioanalyser System (FACSArray, Becton Dickinson, San José, CA, USA) and the analysis of the results was completed with the software FCAP Array (Becton Dickinson) in a PC computer.
(§3) Briefly, the experimental protocol consisted of a plate pre-washing out with Wash Buffer. After decantation, the mixture of capture microparticles was re-suspended in the vortex. Standards and samples were added in the adequate dilution. After permanent stirring incubation during 1 h, the PE detection reagent was added and incubated again during 2h at room temperature. After a washing-out, the acquisition was performed in the flow cytometer. Table 3. -Kit CBA Human Soluble Protein Multiplex Flex Set System.
The effects of compound 12 on IL-10 production by the PBMC from healthy volunteers and patients with rheumatoid arthritis were investigated in the presence and absence of LPS stimulation and with the combination of monoclonal antibodies anti-CD3 and anti-CD28. PBMC (5 x 10^4 cells per well) from 13 healthy volunteers were cultured in duplicate 200 µl of complete medium supplemented with the highest solvent concentration (10^-6 M), and 10^-6 M, 10^-7 M and 10^-8 M of compound 12, in the presence and absence of either LPS (10 µg/ml) or anti-CD3 (12.5 ng/ml), + anti-CD28 (1/3x10^5), during 24 hours.
On the other hand, PBMC (5 x 10^4 cells per well) from 8 patients with rheumatoid arthritis were cultured in duplicate in 200 µl of complete medium supplemented with the highest solvent concentration (10^-6 M), and 10^-6 M, 10^-7 M and 10^-8 M of compound 12 in the presence and absence of either LPS (10 µg/ml) or anti-CD3 (12.5 ng/ml), + anti-CD28 (1/3x10^5), during 24 hours. Culture supernatants were frozen at -20°C and IL-10 concentration was assayed by BD FACS Array Bioanalyser by using CBA Flex Set, specific to determine IL-10 concentration, following the manufacturer instructions.

TNF-alpha = TNF-alpha production by PBMC of healthy volunteers, ELISA of culture supernatant; settings: 24 hours, median ± standard error, n=10
Procedure: In order to quantify the serum cytokines concentration, the extracted blood was stored in tubes both with and without anti-coagulant (collected by antecubital venopunction and arterial catheter, respectively). Blood was allowed to coagulate at room temperature in the laboratory, further separating the serum by centrifugation (600xg during 20 minutes). Supernatant were collected, filtered, divided in aliquotes and stored at -70°C. Concentration assays for different cytokines were performed by using the commercial kits described in Table 2. Table 2.- Commercial ELISA kits used in this study
Supernatants were unfrozen up to the room temperature and faced against the respective anti-cytokine by fixing them in the plate bottom and incubating them during a variable time. Subsequently, wash-outs were carried out and the substances recommended by the corresponding company were added in order to allow a colorimetric reaction, in a proportional manner to the amount of cytokine present in the supernatant. The results were assessed with the enzymo-immunoanalysis reader Multititer Plus (Tiertek Multiscan Plus, Flow Laboratories).
The analysis of the standard curves and subsequent interpolation was performed with the software Delta Soft II version 4.1 (Biometallics, Inc.) in an Apple Macintosh computer. Cytokine concentrations were converted to molar in order to calculate the molecular ratios of each case and the number of soluble molecules.
Effects of compound 12 on TNF-alpha production by PBMC of healthy volunteers in the presence or in the absence of LPS were first investigated. PBMC (5 x 10^4 cells/well, 200 µl) from 10 healthy volunteers were cultured in parallel in duplicate in tissue culture plates, 96 well, flat-bottom with low evaporation lid (353072 Falcon, Becton Dickinson labware, Franklin Lakes, USA, 07417-1886 NJ) in complete medium (RPMI-1640 with glutamine Cat BE-12-70F, Cambrex Biosciences, B4880 Verviers, Belgium), supplemented with phoetal bovine serum (origin USA, Gibco ref. 26140-079) and a solvent concentration of 10^-6 M alone or supplemented with 10^-6 M or 10^-7 M of compound 12, in the presence and in the absence of LPS (10microg/ml; E. coli LPS 0111:B4 strain InvivoGene, San Diego CA92121 USA) during 24 hours. Supernatant of cultures were frozen at -20°C and the concentration of TNF-alpha was quantified with ELISA species-specific (enzyme-linked immunosorbent assay for quantitative detection of tumour necrosis factor- alpha: human TNF-alpha ELISA BM S223/4TEUCE, Bender Med System Inc, Burlinghane CA 94010).

IFN-gamma = IFN-gamma production by PBMC from healthy volunteers, CBA; settings: 24 hours, mean ± standard error, n=13
Procedure: as §1, §2, §3
PBMC (5 x 10^4 cells per well) from 13 healthy volunteers were cultured in duplicate in 200 µl of complete medium supplemented with the highest solvent concentration (10^-6 M), and 10^-6 M, 10^-7 M and 10^-8 M of compound 12 in the presence or absence, either of LPS (10 µg/ml), or anti-CD3 (12.5 ng/ml) + anti-CD28 (1/3x10^5), during 24 hours. Culture supernatants were frozen at -20°C and the concentration of IFN-gamma was quantified by BD FACS Array Bioanalyser by using CBA Flex Set (Becton Dickinson), specific to determine the concentration of IFN-gamma, following the manufacturer instructions.

Question: For `Cc1nc(OC2CCCC2)c(-c2ccc(S(C)(=O)=O)cc2)s1` [compound 12, 4-cyclopentyloxy-5-(4-methylsulfonyl-phenyl)-2-methylthiazole], which “IL-10 production by PMBC from healthy volunteers” value (from here on “IL-10 production by PMBC”) (IL-10; LPS (10µg/ml), 10^-6 M, vehicle 2342.20±384.02, p 0.507) is on record?
Answer: Its value is 2420.68±455.50 (0.507) pg/mL.

Question: And the “IL-10 production by PMBC” value (IL-10; LPS (10µg/ml), 10^-7 M, vehicle 2342.20±384.02, p 0.507)?
Answer: The value was 2392.99±427.86 (0.507) pg/mL.

Question: What about the “IL-10 production by PMBC” value (IL-10; LPS (10µg/ml), 10^-8 M, vehicle 2342.20±384.02, p 0.701) of the same compound?
Answer: The value was 2389.63±366.01 (0.701) pg/mL.

Question: What about the “IL-10 production by PMBC” value (IL-10; anti-CD3 (12.5 ng/ml) + anti-CD28 (1/3x10^5), 10^-6 M, vehicle 1042.64±162.36, p 0.507) of the same compound?
Answer: Its value is 1239.47±251.24 (0.507) pg/mL.

Question: And the “IL-10 production by PMBC” value (IL-10; anti-CD3 (12.5 ng/ml) + anti-CD28 (1/3x10^5), 10^-7 M, vehicle 1042.64±162.36, p 0.382)?
Answer: The value was 1132.69±213.32 (0.382) pg/mL.

Question: What about the “IL-10 production by PMBC” value (IL-10; anti-CD3 (12.5 ng/ml) + anti-CD28 (1/3x10^5), 10^-8 M, vehicle 1042.64±162.36, p 0.507) of the same compound?
Answer: Its value is 1122.51±211.03 (0.507) pg/mL.

Question: And the “IL-10 production by PMBC” value (IL-10; medium, 10^-6 M, vehicle 490.46±87.16, p 0.753)?
Answer: The value was 559.06±112.20 (0.753) pg/mL.

Question: What about the “IL-10 production by PMBC” value (IL-10; medium, 10^-7 M, vehicle 490.46±87.16, p 0.701) of the same compound?
Answer: Its value is 609.10±108.74 (0.701) pg/mL.

Question: What about the “IL-10 production by PMBC” value (IL-10; medium, 10^-8 M, vehicle 490.46±87.16, p 0.861) of the same compound?
Answer: Its value is 578.66±106.20 (0.861) pg/mL.

Question: And the “TNF-alpha production in PMBC from healthy volunteers” value (shortened to “TNF-alpha production in PMBC”) (TNF-alpha; LPS (10µg/ml), 10^-6 M, vehicle 3084.63±450.00, p 0.005)?
Answer: Its value is 1064.91±52.82 (0.005) pg/mL.

Question: What about the “TNF-alpha production in PMBC” value (TNF-alpha; LPS (10µg/ml), 10^-7 M, vehicle 3084.63±450.00, p 0.028) of the same compound?
Answer: The value was 1938.00±487.74 (0.028) pg/mL.

Question: And the “TNF-alpha production in PMBC” value (TNF-alpha; medium (no stimulus), 10^-6 M, vehicle 1118.00±800.00, p 0.009)?
Answer: The value was 551.60±324.17 (0.009) pg/mL.

Question: What about the “TNF-alpha production in PMBC” value (TNF-alpha; medium (no stimulus), 10^-7 M, vehicle 1118.00±800.00, p 0.114) of the same compound?
Answer: Its value is 1121.00±100.48 (0.114) pg/mL.

Question: What about the “IFN-gamma production in PMBC from healthy volunteers” value (“IFN-gamma production in PMBC” for short) (IFN-gamma; LPS (10µg/ml), 10^-6 M, vehicle 860.42±105.00, p 0.011) of the same compound?
Answer: Its value is 649.61±120.00 (0.011) pg/mL.

Question: And the “IFN-gamma production in PMBC” value (IFN-gamma; LPS (10µg/ml), 10^-7 M, vehicle 860.42±105.00, p 0.552)?
Answer: Its value is 919.53±130.00 (0.552) pg/mL.

Question: What about the “IFN-gamma production in PMBC” value (IFN-gamma; LPS (10µg/ml), 10^-8 M, vehicle 860.42±105.00, p 0.382) of the same compound?
Answer: The value was 1049.85±230.00 (0.382) pg/mL.

Question: What about the “IFN-gamma production in PMBC” value (IFN-gamma; anti-CD3 (12.5 ng/ml) + anti-CD28 (1/3x10^5), 10^-6 M, vehicle 11802.22±1300.00, p 0.019) of the same compound?
Answer: The value was 7927.17±1003.00 (0.019) pg/mL.

Question: And the “IFN-gamma production in PMBC” value (IFN-gamma; anti-CD3 (12.5 ng/ml) + anti-CD28 (1/3x10^5), 10^-7 M, vehicle 11802.22±1300.00, p 0.917)?
Answer: The value was 11552.08±1600.00 (0.917) pg/mL.

Question: What about the “IFN-gamma production in PMBC” value (IFN-gamma; anti-CD3 (12.5 ng/ml) + anti-CD28 (1/3x10^5), 10^-8 M, vehicle 11802.22±1300.00, p 0.196) of the same compound?
Answer: Its value is 10254.66±1500.00 (0.196) pg/mL.

Question: And the “IFN-gamma production in PMBC” value (IFN-gamma; medium, 10^-6 M, vehicle 283.78±90.00, p 0.279)?
Answer: The value was 189.72±40.00 (0.279) pg/mL.

Question: What about the “IFN-gamma production in PMBC” value (IFN-gamma; medium, 10^-7 M, vehicle 283.78±90.00, p 0.807) of the same compound?
Answer: Its value is 296.28±90.00 (0.807) pg/mL.

Question: And the “IFN-gamma production in PMBC” value (IFN-gamma; medium, 10^-8 M, vehicle 283.78±90.00, p 0.807)?
Answer: The value was 279.16±60.00 (0.807) pg/mL.
